Source: patent publication US11266617B2, “Beta-hydroxybutyrate encapsulated PLGA nanoparticle compositions” (Massachusetts Institute of Technology, priority 2018, dated 2022)

Legend:
[1] = system: Hmgcs2-null ISCs; assay: Organoid-forming assay with Hmgcs2-null crypts/ISCs; format: cell-based, mouse; conditions: for organoid-forming capacity of Hmgcs2-null ISCs: lactate at comparable concentrations, day-5-to-7 organoids
Description: FIGS. 11A-11N. Characterization of fatty acid oxidation (FAO) and ketogenesis in intestinal crypts. Related to FIG. 4. FIG. 11A, Schematic of the mouse model for intestinal Cpt1a deletion with the timeline for tamoxifen (TAM) injections and tissue collection. FIG. 11B, Immunohistochemistry (IHC) for CPT1a (rate limiting step of FAO) and FIG. 11C, HMGCS2 levels in WT and intestinal Cpt1a loss. Images represent one of 5 biological replicates per group. FIG. 11D, βOHB levels in Cpt1a-null intestinal crypts. n=8 measurements for 4 mice per group. […] The image represents one of 8 biological replicates. FIG. 11F, IHC for HMGCS2, indicating intact HMGCS2 expression in the absence of Paneth cell. The image represents one of 8 biological replicates. For FIGS. 11C-11F, Scale bar: 50 um. FIG. 11G, Schematic of the mouse model for intestinal Hmgcs2 deletion with the timeline for TAM injections and tissue collection. FIG. 11H, Hepatic and intestinal HMGCS2 expression by IHC and FIG. 11I, serum βOHB levels in Hmgcs2-KO mice. FIG. 11J, Intestinal CPT1a expression in mice with conditional intestinal loss of Hmgcs2 by IHC, Scale bar: 100 um. The image represents one of 5 biological replicates. […] FIG. 11L, Organoid-forming assay for number of organoids per intestinal crypt, numbers of Alcian blue^+ goblet cells (black arrows) and percentage of tdTomato^+ area per organoid from WT and Hmgcs2-KO (−/−) ISCs, ±βOHB treatments: +, 10 uM and ++50 uM. Representative images: day-5-to-7 organoids. Scale bar: 50 μm. n=5 mice. […] N, Synthesis of glycerol tri((R)-3-hydroxybutyrate).
As previously reported and briefly summarized here (Mihaylova et al., 2018), small intestines were removed, washed with cold PBS, opened longitudinally and then incubated on ice with PBS plus EDTA (10 mM) for 30-45 min. Tissues were then moved to PBS. Crypts were then mechanically separated from the connective tissue by shaking or by scraping, and then filtered through a 70-μm mesh into a 50-mL conical tube to remove villus material and tissue fragments. Isolated crypts for cultures were counted and embedded in Matrigel™ (Corning 356231 growth factor reduced) at 5-10 crypts per μL and cultured in a modified form of medium as described previously (Sato et al., 2009; Yilmaz et al., 2012). Unless otherwise noted, crypt culture media consists of Advanced DMEM (Gibco) that was supplemented with EGF 40 ng mL^−1 (PeproTech), Noggin 200 ng mL^−1 (PeproTech), R-spondin 500 ng mL^−1 (R&D, Sino Bioscience or (Ootani et al., 2009)), N-acetyl-L-cysteine […] (Sigma-Aldrich), N2 1× (Life Technologies), B27 1× (Life Technologies), CHIR99021 3 μM (LC laboratories), and Y-27632 dihydrochloride monohydrate 10 μM (Sigma-Aldrich). Intestinal crypts were cultured in the above-mentioned media in 20-25 μL droplets of Matrigel™ were plated onto a flat bottom 48-well plate (Corning 3548) and allowed to solidify for 20-30 minutes in a 37° C. incubator. Three hundred microliters of crypt culture medium was then overlaid onto the Matrigel™, changed every three days, and maintained at 37° C. in fully humidified chambers containing 5% CO2. Clonogenicity (colony-forming efficiency) was calculated by plating 50-300 crypts and assessing organoid formation 3-7 days or as specified after initiation of cultures. β-Hydroxybutyrate (Sigma, 54965), Quisinostat (JNJ-26481585) 2HCl (Selleckchem, S1096), Entinostat (MS-275) (Selleckchem, S1053), Trichostatin A (Selleckchem, 51045) and γ-secretase inhibitor MK-0752 (Cayman Chemical Company, 471905-41-6) were added into cultures as indicated in the figure legends. Plasmids for Hdac1 CRISPR-deletion (sc-436647), Cre-expression (sc-418923), Cre-expression and Hmgcs2 CRISPR-deletion (VB180615-1103gue) were used for organoid transfection according to manufacturers' instructions.
If not directly used for cultures, crypts were then dissociated into single cells and sorted by flow cytometry. […]

[2] = system: Hes1-GFP organoids; assay: Hes1-GFP organoid reporter assay (GFP by flow cytometry); format: cell-based, mouse; conditions: GSI 10 uM, βOHB 50 uM, JNJ-26481585 0.2 nM; compared to control
Description: FIGS. 5A-5G show βOHB-mediated HDAC inhibition enhances NOTCH signaling. FIG. 5A, Violin plots of genes related to FIG. 12A: Notch receptor Notch1, Class I HDAC genes: HDAC1/2/3 and Notch target Hes1, based on a previously published scRNA-Seq data (Haber et al., 2017). FIG. 5B, Representative flow cytometry plots (top) and quantification of GFP expression (bottom) Hes1-GFP+ primary organoids exposed to γ-secretase inhibitor (GSI, 10 uM), βOHB (50 uM) and HDAC inhibitor (JNJ-26481585, 0.2 nM), compared to control condition. n=6 samples per treatment from n=3 mice. FIG. 5C, Organoid-forming assay for intestinal crypts isolated from WT and Hmgcs2-KO mice, with combinations of HDAC inhibitor JNJ-26481585 (JNJ) or βOHB treatments or Notch receptor inhibitor (GSI, gamma secretase inhibitor). Quantification and representative images: day-5-to-7 organoids. n=4 mice. Scale bar: 500 μm. Arrows indicate organoids and asterisks indicate aborted crypts. FIG. 5D, Schematic (top) of the mouse model including the timeline of tamoxifen (TAM) and HDACi (JNJ) injection and tissue collection. Nuclear NICD, a measure of Notch activation, by immunofluorescence (IF). […] FIG. 5E, Quantification of OLFM4^+ stem cells, LYZ+ Paneth cells and AB/PAS+ goblet cells in proximal jejunal crypts by IHC. […] FIG. 5G, Quantification and representative images of tdTomato+ Lgr5^+ ISC-derived lineage (cell progenies) by IHC. […] For box-and-whisker plots (FIG. 5C) data were expressed as box-and-whisker 10 to 90 percentiles, Data in bar graph (FIG. 5D) and dot plot (FIG. 5E and FIG. 5G) are expressed as mean+/−s.e.m. *p<0.05, **p<0.01, ***p<0.005, ****p<0.0001. […]
As previously reported and briefly summarized here (Mihaylova et al., 2018), small intestines were removed, washed with cold PBS, opened longitudinally and then incubated on ice with PBS plus EDTA (10 mM) for 30-45 min. […] Isolated crypts for cultures were counted and embedded in Matrigel™ (Corning 356231 growth factor reduced) at 5-10 crypts per μL and cultured in a modified form of medium as described previously (Sato et al., 2009; Yilmaz et al., 2012). […]

[3] = system: class I HDACs; conditions: reported (Shimazu et al., 2013); cited from earlier work
[4] = system: intestinal crypts; assay: HDAC inhibitor treatment of Hmgcs2-null mice, crypt histology (NICD, H3K27ac, OLFM4, LYZ, AB/PAS); format: in vivo, mouse; conditions: 1 mg/kg, 5 i.p. injections
[5] = system: Lgr5+ ISCs; assay: Intestinal regeneration after irradiation in Hmgcs2-KO mice (Lgr5 lineage tracing); format: in vivo, mouse; conditions: Hmgcs2-null mice; 1 mg/kg, 5 i.p. injections; XRT 7.5 Gy×2
Description: FIG. 4F, Schematic (top) of the mouse model including the timeline of tamoxifen (TAM) injection, oral administration of nanoparticle PLGA encapsulated βOHB or non-encapsulated βOHB oligomers, irradiation (XRT, 7.5 Gy×2) and tissue collection. Quantification (bottom) and representative images (right) of tdTomato+ Lgr5^+ ISC-derived lineage (cell progenies) by IHC. Scale bar: 100 μm. n>25 crypts per measurement, n>5 measurements per mouse and n>3 mice per group. […] Data in dot plots were expressed as mean+/−s.e.m. *p<0.05, **p<0.01, ***p<0.005.

Structure (SMILES): CC(O)C(=O)O (centres unmarked) [lactate]
- organoid-forming capacity of Hmgcs2-null ISCs ([1]; βOHB 10 uM and 50 uM): not
- organoid-forming capacity of Hmgcs2-null ISCs ([1]; βOHB 10 uM and 50 uM, listed as Lactate): did not affect

Structure (SMILES): O=C(O)CC[C@H]1CC[C@@](c2cc(F)ccc2F)(S(=O)(=O)c2ccc(Cl)cc2)CC1 [GSI, MK-0752]
- GFP expression of Hes1-GFP organoids (NOTCH target gene expression) [2]: dampened GFP expression
- restoration of organoid-forming capacity of Hmgcs2-null crypts by βOHB or JNJ under NOTCH blockade ([1]; GSI added to βOHB or JNJ treated cultures): prevented the ability of either βOHB or JNJ HDAC inhibitor

Structure (SMILES): Nc1ccccc1NC(=O)c1ccc(CNC(=O)OCc2cccnc2)cc1 [MS-275, Entinostat (MS-275)]
- Hmgcs2-null organoid function ([1]; 10-to-100 nM): rescued
- Hmgcs2-null organoid function ([1]; doses beyond 10-to-100 nM): failed to do so

Structure (SMILES): CC(O)CC(=O)O (stereo not drawn) [βOHB, β-hydroxybutyrate]
- inhibition of class I HDACs [3]: endogenous inhibitor for class I HDACs
- GFP expression of Hes1-GFP organoids (NOTCH target gene expression) [2]: increased GFP expression
- secretory lineage bias of Hmgcs2-null organoids ([1]; βOHB 10 uM and 50 uM, Alcian blue+ goblet cells): rectified
- organoid-forming capacity of Hmgcs2-null ISCs ([1]; βOHB 10 uM and 50 uM): rectified
- generation of tdTomato+ clones by Hmgcs2-null ISCs ([1]; βOHB 10 uM and 50 uM, tdTomato+ area per organoid): rectified

Structure (SMILES): Cn1cc(CNCC2CCN(c3ncc(C(=O)NO)cn3)CC2)c2ccccc21 [Quisinostat, Quisinostat (JNJ-26481585) 2HCl]
- GFP expression of Hes1-GFP organoids (NOTCH target gene expression) [2]: increased GFP expression
- decline in ISCs numbers (OLFM4+ stem cells) [4]: rescued
- decrease in numbers of H3K27ac or NICD positive crypt cell nuclei [4]: prevented these changes
- expansion of secretory cell types [4]: rescued
- ISC function after injury [5]: rescued
- crypt organoid-forming capacity of Hmgcs2-null crypts ([1]; HDAC inhibitor at a dose shown to block HDAC1 activity, alone or with βOHB): rescued crypt organoid-forming capacity
